According to patent publication EP0840781B1, “METHODS AND DEVICES FOR THE REMOVAL OF PSORALENS FROM BLOOD PRODUCTS” (Cerus Corporation, priority 1995, dated 1996):

Experiment: HPLC analysis of residual S-59 and photoproducts in PC after UVA and 8-hour treatment with RD containing Dowex XUS-43493
Format: physicochemical
Protocol: Briefly, the assay involved an initial sample preparation which lyses the platelets and solubilizes the S-59 and photoproducts. The supernatant from the sample preparation was then analyzed on a C-18 reverse phase column with a gradient of increasing methanol in KH2PO4 buffer. The major peaks were detected by optical absorbance. […] Samples of the treated PC were then taken and subjected to HPLC for detection of residual S-59 and S-59 photoproducts. Post-incubation levels of photoproducts D, E, and F (S-59) are presented in Table N; photoproducts A, B, C, and G were not detectable by HPLC. Levels of residual photoproducts are average values taken from six independent, photochemically- and RD-treated platelet units. […] The PC was assayed for unbound photoproducts using the HPLC assay discussed above, which quantifies the photoproducts present both within the platelets and in the plasma/PAS III mixture. […] In addition to assaying the complete PC, samples were centrifuged to remove the platelets so that unbound photoproducts in the plasma/PAS III could be analyzed separately. […] To evaluate the efficacy of the RD for reducing the concentration of S-59. platelet samples from the test unit were analyzed for S-59 content by HPLC. […] The concentration of S-59 before and after UVA illumination and the reduction in the concentration of residual S-59 following RD treatment were measured by HPLC analysis. […]

## Cc1oc2c(C)c3oc(=O)cc(C)c3cc2c1COCCN [Compound 2, 4'-(4-amino-2-oxa)butyl-4,5',8-trimethylpsoralen]
Post 3 Joule/cm^2 UVA Illumination, of the initial S-59 remained unreacted
  % Residual S- 59: 20.5 ± 2.3%
Pre-Treatment (0 Joule/cm^2), platelet concentrate, HPLC
  µM S-59: 145 ± 10 µM
